Several values for one entry are separate records, joined by “and”; a condition that tells them apart may be missing. Equal values may be shown once.
Legend:
MET channel [1] = molecular target: T1, MET channel (Mus musculus, UniProt Q8R4P5); assay: Location-specific macroscopic MET current in OHCs, fluid-jet stimulation; format: cell-based; conditions: wild-type OHCs in 35 mM Ca2+
T1 construct: the basilar membrane with hair cells was acutely dissected from neonatal mice; endogenous in cells; host or cells: outer hair cells of acutely dissected neonatal mouse cochlea
Procedure: (§1) Hair cells were recorded using whole-cell voltage or current clamp as previously described ([Xiong et al., 2012]). All experiments were performed at room temperature (20–25°C). Briefly, the basilar membrane with hair cells was acutely dissected from neonatal mice. […] The acutely isolated or cultured basilar membrane was used for electrophysiological recording within 1 h. Hair cells were imaged under an upright microscope (BX51WI, Olympus, Tokyo, Japan) with a 60 × water immersion objective and an sCMOS camera (ORCA Flash4.0, Hamamatsu, Hamamatsu City, Japan) controlled by MicroManager 1.6 software ([Edelstein et al., 2010]). Patch pipettes were made from borosilicate glass capillaries (BF150-117-10, Sutter Instrument Co., Novato, CA) with a pipette puller (P-2000, Sutter) and polished on a microforge (MF-830, Narishige, Tokyo, Japan) to resistances of 4–6 M'Ω. Intracellular solution contained (in mM): 140 CsCl, 1 MgCl2, 0.1 EGTA, 2 Mg-ATP, 0.3 Na-GTP, and 10 H-HEPES, pH 7.2), except when CsCl was replaced with KCl in current-clamp. Hair cells were recorded with a patch-clamp amplifier (EPC 10 USB and Patchmaster software, HEKA Elektronik, Lambrecht/Pfalz, Germany).
(§2) For single-channel recordings, we followed published procedures ([Ricci et al., 2003]; [Xiong et al., 2012]). The intracellular solution was the same for macroscopic and microscopic current recording. […] After bundle destruction, fresh external solution was given to re-establish the corresponding extracellular ionic environment. […] Only traces with obvious single-channel events were included for analyzing.
The sampling rate was 1 kHz for leak current recording, 50 kHz for the IV protocol and current-clamp recording, and 100 kHz for unitary channel recording. […]
The hair bundle was deflected by two types of mechanical stimulus, fluid jet and glass probe. […] The hair-bundle-removed OHCs with good condition were further recorded. Examined by a fluid-jet stimulation, the OHCs without obvious MET current were further measured for the leak current.

leak current in OHCs = molecular target: T2, leak current in OHCs (Mus musculus, UniProt Q8R4P5); assay: Ion-permeation tests of the leak current (ion substitution in the external solution); format: cell-based; conditions: 150 mM NaCl partially or completely replaced (150 mM CsCl; 75 mM Ca2+); compared with Na+
T2 construct: the basilar membrane with hair cells was acutely dissected from neonatal mice; endogenous in cells; host or cells: outer hair cells of acutely dissected neonatal mouse cochlea
T2 sequence (Q8R4P5 1-757): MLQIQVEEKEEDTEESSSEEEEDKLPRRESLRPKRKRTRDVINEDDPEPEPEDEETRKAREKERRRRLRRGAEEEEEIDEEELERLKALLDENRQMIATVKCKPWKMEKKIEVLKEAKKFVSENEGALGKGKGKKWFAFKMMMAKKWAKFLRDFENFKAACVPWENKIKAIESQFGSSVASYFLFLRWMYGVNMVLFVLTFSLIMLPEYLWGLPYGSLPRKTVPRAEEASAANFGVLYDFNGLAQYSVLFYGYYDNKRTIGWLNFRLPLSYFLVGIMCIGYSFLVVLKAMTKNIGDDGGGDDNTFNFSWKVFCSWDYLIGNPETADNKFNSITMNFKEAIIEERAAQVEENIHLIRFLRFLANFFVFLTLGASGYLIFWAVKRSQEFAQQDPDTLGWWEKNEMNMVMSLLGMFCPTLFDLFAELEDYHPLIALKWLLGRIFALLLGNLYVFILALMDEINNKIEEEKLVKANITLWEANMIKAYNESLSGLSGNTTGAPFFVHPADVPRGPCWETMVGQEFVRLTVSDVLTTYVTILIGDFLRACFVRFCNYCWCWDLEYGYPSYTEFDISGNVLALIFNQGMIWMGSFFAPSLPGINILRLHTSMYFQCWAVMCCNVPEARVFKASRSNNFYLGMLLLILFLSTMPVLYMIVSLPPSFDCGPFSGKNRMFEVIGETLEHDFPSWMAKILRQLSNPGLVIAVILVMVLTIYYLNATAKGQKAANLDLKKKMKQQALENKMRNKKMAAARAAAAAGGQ
Procedure: as §1
(§3) In Figure 6A, LiCl and CsCl were 150 mM, completely substituting for NaCl.

MET channel [2] = assay: Unitary MET channel current recording in OHCs; format: cell-based, mouse
Source text: as §2
(§4) The sampling rate was 1 kHz for leak current recording, 50 kHz for the IV protocol and current-clamp recording, and 100 kHz for unitary channel recording. The voltage-clamp used a –70 mV holding potential, and the current-clamp was held at 0 pA. Only recordings with a current baseline <20 pA in NMDG solution were used for statistical analysis.
(§5) The hair bundle was deflected by two types of mechanical stimulus, fluid jet and glass probe. The fluid jet stimulation was performed as described previously ([Beurg et al., 2014]). In brief, a 40 Hz sinusoidal wave stimulus was delivered by a 27-mm-diameter piezoelectric disc driven by a home-made piezo amplifier pipette with a tip diameter of 3–5 μm positioned 5–10 μm from the hair bundle to evoke maximum MET currents. […] The actuator was driven with voltage steps that were low-pass filtered at 10 KHz. To avoid bundle damage caused by overstimulation, the glass probe was shaped to have a slightly smaller diameter than the hair bundles, and the stimulation distance was 800 nm for macroscopic current and 100 nm for unitary channel recording. For hair bundle removal, a pipette with 1 μm diameter tip was used to suck away the hair bundles of the target OHCs. The hair-bundle-removed OHCs with good condition were further recorded. Examined by a fluid-jet stimulation, the OHCs without obvious MET current were further measured for the leak current.

leak current = molecular target: T3, leak current (Mus musculus, UniProt Q8R4P5); assay: Background leak current in graded Ca2+ and Na+ concentrations (wild-type and Tmc1-knockout OHCs); format: cell-based; conditions: 35 mM [Ca2+]o
T3 construct: the basilar membrane with hair cells was acutely dissected from neonatal mice; endogenous in cells; host or cells: outer hair cells of acutely dissected neonatal mouse cochlea
T3 sequence (Q8R4P5 1-757): T2 sequence (Q8R4P5 1-757)
Procedure: as §1, §3
The osmotic pressure of each solution was re-adjusted to 300–320 mOsm/kg with sucrose, and the pH was adjusted to 7.4.

MET channel [3] = test system: MET channel; set-up: method as in Kim and Fettiplace, 2013; conditions: P5 apical OHCs; ref Kim and Fettiplace, 2013; cited from earlier work
MET channel [4] = molecular target: T1, MET channel; assay: MET current in graded Ca2+ and Na+ concentrations; format: cell-based; conditions: wild-type OHCs
Procedure: as §1, with “Intracellular solution contained (in mM): 140 CsCl, 1 MgCl2, 0.1 EGTA, 2 Mg-ATP, 0.3 Na-GTP, and 10 H-HEPES, pH 7.2), except when CsCl was replaced with KCl in current-clamp.” left out
The hair bundle was deflected by two types of mechanical stimulus, fluid jet and glass probe. […] The hair-bundle-removed OHCs with good condition were further recorded. Examined by a fluid-jet stimulation, the OHCs without obvious MET current were further measured for the leak current. […]

MET channel [5] = molecular target: T1, MET channel; assay: MET current (IMET) inhibition by blockers, whole-cell voltage clamp of OHCs with glass-probe hair-bundle deflection; format: cell-based
Procedure: All experiments were performed at room temperature (20–25°C). Briefly, the basilar membrane with hair cells was acutely dissected from neonatal mice. […] The acutely isolated or cultured basilar membrane was used for electrophysiological recording within 1 h. […] Hair cells were recorded with a patch-clamp amplifier (EPC 10 USB and Patchmaster software, HEKA Elektronik, Lambrecht/Pfalz, Germany).
as §4
as §5, with “The fluid jet stimulation was performed as described previously ([Beurg et al., 2014]).” left out
(§6) Dose-inhibition curves were fitted with a Hill equation: Ix/Imax=X^h/(K^h+X^h))
(§7) Where K is the half-inhibition dose (IC50) and h is the Hill slope. Imax is the maximal current in control condition.

[6] = molecular target: T4, TMC1-mediated leak conductance (Mus musculus, UniProt Q8R4P5); assay: Background/leak current (IBG) inhibition by blockers, whole-cell voltage clamp of OHCs; format: cell-based; conditions: for effect on the leak current compared with the MET current: graded concentrations
T4 sequence (Q8R4P5 1-757): T2 sequence (Q8R4P5 1-757)
Procedure: as §1, with “Intracellular solution contained (in mM): 140 CsCl, 1 MgCl2, 0.1 EGTA, 2 Mg-ATP, 0.3 Na-GTP, and 10 H-HEPES, pH 7.2), except when CsCl was replaced with KCl in current-clamp.” left out
as §4, §6, §7

T1 sequence (Q4KL25 whole entry partner, one chain of several): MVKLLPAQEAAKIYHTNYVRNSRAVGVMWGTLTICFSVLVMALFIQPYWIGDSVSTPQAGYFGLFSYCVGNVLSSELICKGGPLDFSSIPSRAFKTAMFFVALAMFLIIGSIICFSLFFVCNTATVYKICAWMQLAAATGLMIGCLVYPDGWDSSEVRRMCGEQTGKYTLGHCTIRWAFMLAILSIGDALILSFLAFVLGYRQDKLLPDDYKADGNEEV
T1 sequence (Q8K467 29-153 partner, one chain of several): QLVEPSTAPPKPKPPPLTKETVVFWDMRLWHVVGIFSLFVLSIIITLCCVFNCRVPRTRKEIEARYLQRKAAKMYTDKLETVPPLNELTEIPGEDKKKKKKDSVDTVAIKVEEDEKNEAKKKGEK
T1 sequence (Q9Z309 whole entry partner, one chain of several): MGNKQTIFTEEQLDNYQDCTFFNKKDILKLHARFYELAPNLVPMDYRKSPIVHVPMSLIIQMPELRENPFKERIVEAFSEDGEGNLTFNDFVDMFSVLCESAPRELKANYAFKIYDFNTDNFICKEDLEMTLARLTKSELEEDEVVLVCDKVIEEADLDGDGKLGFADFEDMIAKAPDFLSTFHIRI

[Ca+2].[Cl-].[Cl-] [Ca^2+, CaCl2]
macroscopic IMET (MET channel [1]; location D05, holding −70 mV): –369 ± 13 pA | macroscopic IMET (MET channel [1]; location D40, holding −70 mV): –384 ± 30 pA | macroscopic IMET (MET channel [1]; location D60, holding −70 mV): –461 ± 31 pA | size of ILeak conducted by the substituted cation (leak current in OHCs): robustly blocked | unitary MET channel current (MET channel [2]; 35 mM Ca2+, location D05, holding −70 mV): –4.7 ± 0.1 pA | unitary MET channel current (MET channel [2]; 35 mM Ca2+, location D20, holding −70 mV): –4.8 ± 0.1 pA | unitary MET channel current (MET channel [2]; 35 mM Ca2+, location D60, holding −70 mV): –4.9 ± 0.1 pA | unitary MET channel current (MET channel [2]; 35 mM [Ca2+]o, both low-frequency and high-frequency OHCs): ~ 5 pA | block of the leak current (leak current): sufficient to block the leak current to an extent similar to TMC1 removal in OHCs | Ca2+ permeability of the MET channel, PCa/PCs (MET channel [3]): around six | [Ca2+]o after which the MET current reached a plateau, sufficient to block the leak current (MET channel [4]): > 10 mM

[La+3] [La3+]
met (normalized) (MET channel [5]; La3+ 4000): 0.01513 and 0.01398 and 0.02694 and 0.01393 and 0.02154 and 0.01619 and 0.02515

COc1cc2c3cc1Oc1cc(ccc1O)C[C@@H]1c4c(cc(OC)c(O)c4Oc4ccc(cc4)C[C@@H]3N(C)CC2)CC[N+]1(C)C [dTC, d-tubocurarine]
Leak nor ([6]; dTC 0.01): 1.062 and 1.003 and 1.024 and 0.9706 and 0.8444 and 0.8511 and 0.9123 | effect on the leak current compared with the MET current [6]: affected the leak current, albeit at higher concentrations than the MET current | IC50 ([6]; read-out: IC50, IBG (leak conductance), OHCs, […] Ca2+, holding −70 mV, Hill fit): 82 µM | IC50 (MET channel [5]): 6 µM

N=C(N)NC(=O)c1nc(Cl)c(N)nc1N [Amiloride, amiloride]
effect on the leak current compared with the MET current [6]: affected the leak current, albeit at higher concentrations than the MET current

[Cl-].[Cs+] [Cs^+, CsCl]
size of ILeak conducted by the substituted cation (leak current in OHCs): slightly larger

Reference: publication PMC6853638, “TMC1 is an essential component of a leak channel that modulates tonotopy and excitability of auditory hair cells in mice” (eLife, 2019)
